One data set has as its target BRAF (V600E) (Homo sapiens, UniProt P15056, V600E). The data set can be described thus: BRaf inhibitory activity assay. In kind it is biochemical. Conditions: read-out: Compound IC50 BRAF (V600E). On the procedure: (§1) In this assay, the BRaf inhibitory activity of the compound of formula I, where
(§2) Reactions were carried out at 10 μM ATP.

The next data set addresses wild-type BRaf (Homo sapiens, UniProt P15056). The data set can be described thus: BRaf inhibitory activity assay. In kind it is biochemical. As to conditions: read-out: Compound IC50 BRAF. The procedure: as §1, §2
Data set [1] has as its system BALB/c-3T3 mouse fibroblasts. The data set can be described thus: 3T3 neutral red uptake phototoxicity assay. In kind it is cell-based. Conditions: mouse, 24 h. The procedure:
Therefore, the compounds of the present disclosure were screened for phototoxicity using the 3T3 natural red uptake assay.
In brief, BALB/c-3T3 mouse fibroblasts (originally obtained from ATCC) were seeded in 96-well plates at 12,000 cells per well, and grown for 24 hr. Test compounds and the positive control (chlorpromazine) were solubilized and serially diluted in DMSO. The negative control (histidine) was solubilized and diluted in HBSS. A dilution for all test articles was then made into HBSS at the final testing concentrations. At the start of the assay, the growth medium was removed from the plates and replaced with test agent dilution. Six replicates were used for each concentration. Cells were incubated in the dark with test article for 1 h, exposed to UVA light (2.5 J/cm2 over 18 min) and incubated 24 hrs. in the dark. A parallel non-irradiated plate was treated similarly, except it was stored in the dark, rather than illuminated.
For Neutral Red staining, medium was removed and fresh medium containing 25 μg/mL of Neutral Red (Sigma) was added. After three hours incubation, the cells were washed with PBS, and the cellular dye was solubilized with 1% acetic acid in 50% ethanol. Cellular Neutral Red was measured by its absorbance at 540 nm.
Data analysis: An IC50 (concentration that causes 50% reduction in viability) was calculated for each condition by linear interpolation.
A Photo-Irritation Factor (PIF) was calculated: PIF=IC50(−Irr)/IC50(+Irr)
PIF>5 indicates phototoxicity; 2<PIF<5 indicates probable phototoxicity; PIF<2 indicates no phototoxicity
In addition, the Mean Photo Effect (MPE) was calculated by comparison of the complete concentration-response curves. MPE is a weighted average of the difference in response of equivalent doses normalized by the shift in IC50.
MPE>0.15 indicates phototoxicity; 0.1<MPE<0.15 indicates probable phototoxicity; MPE<0.1 indicates no phototoxicity.

Data set [2] deals with ERK phosphorylation in HEKa cells. Nature of the data set: phospho-ERK in HEKa cells following EGFR inhibitors (Western blot). In kind it is cell-based, human. The procedure: Human normal keratinocyte cells HEKa were purchased from Gibco Rhenium and seeded in 10 cm dishes (300,000 cells/dish) and incubated overnight at 37° C., 5% CO2. Next morning, the medium was replaced to a starvation medium for 2 hours and then the cells were treated for 2 additional hours with the test compounds. Post incubation, the cells were lyzed with RIPA and the protein extracts were analyzed by western blot for Phospho-ERK and total ERK. Untreated cells and 0.1% DMSO treated cells were used as negative control. HKGS growth factors was used as a positive control.
Western blot: 7.5 μg of total extract was loaded on 10% acrylamide gel. Following transfer, the membranes were blocked with TBST/5% skimmed milk and then incubated with Mouse anti Phospho-ERK (1:1000 in TBST 5% BSA, ON at 4° C.) and goat anti Mouse HRP (1:10,000 in TBST 5% BSA, 1-hour RT). The membranes were exposed using SuperSignal West Pico Chemiluminescent Substrate.
The HRP was then inactivated by incubating the membranes for 1 hour with 0.5% sodium azide Following washes and ECL exposure in order to ensure absence of signal, the membranes were re-blocked for 15 min with TBST/5% skimmed milk and then incubated with Rabbit anti total ERK2 (1:500 in TBST 5% BSA, ON at 4° C.), goat anti Rabbit HRP (1:5,000 in TBST 5% BSA, 1-hour RT) and finally exposed using the SuperSignal West Pico Chemiluminescent Substrate. The films were scanned and the signal were quantified using ImageJ software. The results were calculated as Phospho-ERK/total ERK.
HKGS was used as a positive control.

Data set [3] is described as follows: ex vivo skin permeation and penetration, MedFlux-HT diffusion cells. As to conditions: topical composition comprising LUT014; skin sample; after 24 hours; citrate/phosphate buffer pH 4.0 with 0.01% Brij. In kind it is in vitro ADME. On the procedure:
An ex vivo permeation and penetration experiment for a topical composition comprising LUT-014 was conducted using MedFlux-HT™ continuous flow through diffusion cells. A skin sample was placed between donor and receptor compartments of the diffusion cell. The diffusion of the topical composition was measured using a citrate/phosphate buffer (pH 4.0) with 0.01% Brij as a receptor solution. LUT014 permeated into the skin sample was extracted using 90/10 acetonitrile/water as an extraction solvent.

For another data set, the system named is minipigs. The data set can be described thus: MTD Dermal Minipigs. Conditions: 5 mg/kg/day for up to 6 days. In kind it is in vivo.
Another data set deals with Escherichia coli. Nature of the data set: In vitro Ames test, reverse mutation assay. In kind it is cell-based. In general terms: The Ames test detects mutagens through reverse mutation in bacteria.
The target of another data set is CDK2/cyclinA(h) (Homo sapiens, UniProt P24941). The data set can be described thus: KinaseProfiler kinase selectivity assay. In kind it is biochemical. The procedure: (§3) All compounds were prepared to 50× final assay concentration in 100% DMSO. This working stock of the compound was added to the assay well as the first component in the reaction, followed by the remaining components. In the standard KinaseProfiler™ service, there is no pre-incubation step between the compound and the kinase prior to initiation of the reaction. The positive control wells contain all components of the reaction, except the compound of interest; however, DMSO (at a final concentration of 2%) is included in these wells to control for solvent effects. The blank wells contain all components of the reaction, with a reference inhibitor replacing the compound of interest. This abolishes kinase activity and establishes the base-line (0% kinase activity remaining).

The next data set has as its target CaMKI(h) (Homo sapiens, UniProt Q14012). The data set can be described thus: KinaseProfiler kinase selectivity assay. In kind it is biochemical. The procedure:
as §3

A further data set addresses Fyn(h) (Homo sapiens, UniProt P06241). The data set can be described thus: KinaseProfiler kinase selectivity assay. In kind it is biochemical. The procedure: as §3
Another data set has as its target IGF-1R(h) (Homo sapiens, UniProt P08069). The data set can be described thus: KinaseProfiler kinase selectivity assay. In kind it is biochemical. On the procedure: as §3
A further data set concerns the target Rse(h) (Homo sapiens, UniProt Q06418). Nature of the data set: KinaseProfiler kinase selectivity assay. In kind it is biochemical. On the procedure: as §3
In another data set the target is SAPK2a(h) (Homo sapiens, UniProt Q16539). The data set can be described thus: KinaseProfiler kinase selectivity assay. In kind it is biochemical. On the procedure:
as §3

A further data set concerns the target p70S6K(h) (Homo sapiens, UniProt P23443). The data set can be described thus: KinaseProfiler kinase selectivity assay. In kind it is biochemical. The procedure:
as §3

The next data set deals with GP. As to conditions: in vivo.

SMILES strings stand for the structures.

This is an account of results in patent US11339163B2, “BRaf inhibitors and use thereof for treatment of cutaneous reactions” (Lutris Pharma Ltd., priority 2017, dated 2022).

CaMKI(h), sequence (Q14012 whole entry): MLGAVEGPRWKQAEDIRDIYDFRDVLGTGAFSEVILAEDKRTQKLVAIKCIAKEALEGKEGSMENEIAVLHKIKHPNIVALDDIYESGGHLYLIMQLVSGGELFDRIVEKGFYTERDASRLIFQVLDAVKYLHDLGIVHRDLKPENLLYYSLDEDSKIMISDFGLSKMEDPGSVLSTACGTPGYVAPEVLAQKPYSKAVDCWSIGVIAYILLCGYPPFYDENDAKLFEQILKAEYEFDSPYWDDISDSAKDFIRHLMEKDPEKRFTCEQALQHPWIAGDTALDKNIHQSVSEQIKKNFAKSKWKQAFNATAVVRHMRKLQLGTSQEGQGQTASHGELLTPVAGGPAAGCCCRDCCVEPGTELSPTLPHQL
SAPK2a(h), sequence (Q16539 whole entry): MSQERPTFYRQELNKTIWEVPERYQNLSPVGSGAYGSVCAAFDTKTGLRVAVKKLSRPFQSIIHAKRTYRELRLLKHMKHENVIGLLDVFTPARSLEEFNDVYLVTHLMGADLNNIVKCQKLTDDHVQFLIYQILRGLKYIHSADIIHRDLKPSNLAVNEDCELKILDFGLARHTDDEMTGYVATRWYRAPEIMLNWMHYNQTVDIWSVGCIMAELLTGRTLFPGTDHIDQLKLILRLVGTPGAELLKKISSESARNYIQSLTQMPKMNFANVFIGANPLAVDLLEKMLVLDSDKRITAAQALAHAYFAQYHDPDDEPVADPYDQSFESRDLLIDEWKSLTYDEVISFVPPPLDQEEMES
Fyn(h), sequence (P06241 whole entry): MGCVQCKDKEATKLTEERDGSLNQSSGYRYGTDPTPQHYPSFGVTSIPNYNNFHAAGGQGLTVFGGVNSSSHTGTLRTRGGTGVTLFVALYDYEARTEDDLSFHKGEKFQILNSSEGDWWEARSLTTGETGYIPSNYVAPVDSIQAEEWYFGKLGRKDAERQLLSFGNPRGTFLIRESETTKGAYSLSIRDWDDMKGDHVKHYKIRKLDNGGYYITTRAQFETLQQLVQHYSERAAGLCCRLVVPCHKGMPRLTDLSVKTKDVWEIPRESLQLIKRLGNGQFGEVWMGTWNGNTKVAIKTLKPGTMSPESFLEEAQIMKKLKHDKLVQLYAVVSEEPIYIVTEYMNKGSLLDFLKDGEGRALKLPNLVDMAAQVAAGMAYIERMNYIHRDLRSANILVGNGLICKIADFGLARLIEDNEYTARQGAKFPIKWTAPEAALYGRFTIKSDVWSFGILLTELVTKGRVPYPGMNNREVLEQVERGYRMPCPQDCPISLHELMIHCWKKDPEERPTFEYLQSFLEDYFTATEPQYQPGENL
Rse(h), sequence (Q06418 41-890): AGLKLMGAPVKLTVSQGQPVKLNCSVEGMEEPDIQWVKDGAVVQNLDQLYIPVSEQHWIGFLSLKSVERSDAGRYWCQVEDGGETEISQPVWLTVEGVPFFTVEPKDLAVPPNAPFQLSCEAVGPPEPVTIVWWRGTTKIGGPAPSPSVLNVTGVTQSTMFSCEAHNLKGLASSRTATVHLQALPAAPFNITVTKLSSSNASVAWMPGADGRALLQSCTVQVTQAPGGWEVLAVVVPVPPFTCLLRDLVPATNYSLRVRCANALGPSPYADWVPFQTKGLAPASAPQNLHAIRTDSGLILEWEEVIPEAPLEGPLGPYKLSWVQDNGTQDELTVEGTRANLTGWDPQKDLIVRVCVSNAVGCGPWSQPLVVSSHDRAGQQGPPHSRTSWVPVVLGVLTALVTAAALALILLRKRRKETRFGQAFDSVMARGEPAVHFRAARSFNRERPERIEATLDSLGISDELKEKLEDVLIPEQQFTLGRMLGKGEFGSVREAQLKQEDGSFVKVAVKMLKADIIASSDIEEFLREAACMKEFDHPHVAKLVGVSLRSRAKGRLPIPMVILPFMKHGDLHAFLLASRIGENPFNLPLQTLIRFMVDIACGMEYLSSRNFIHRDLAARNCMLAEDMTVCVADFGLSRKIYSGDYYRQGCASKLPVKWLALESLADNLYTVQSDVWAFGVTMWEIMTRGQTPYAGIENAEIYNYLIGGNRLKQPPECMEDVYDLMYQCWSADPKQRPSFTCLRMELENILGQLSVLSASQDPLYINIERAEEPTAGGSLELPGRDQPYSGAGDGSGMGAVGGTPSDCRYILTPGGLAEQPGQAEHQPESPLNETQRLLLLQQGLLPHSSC
p70S6K(h), sequence (P23443 whole entry): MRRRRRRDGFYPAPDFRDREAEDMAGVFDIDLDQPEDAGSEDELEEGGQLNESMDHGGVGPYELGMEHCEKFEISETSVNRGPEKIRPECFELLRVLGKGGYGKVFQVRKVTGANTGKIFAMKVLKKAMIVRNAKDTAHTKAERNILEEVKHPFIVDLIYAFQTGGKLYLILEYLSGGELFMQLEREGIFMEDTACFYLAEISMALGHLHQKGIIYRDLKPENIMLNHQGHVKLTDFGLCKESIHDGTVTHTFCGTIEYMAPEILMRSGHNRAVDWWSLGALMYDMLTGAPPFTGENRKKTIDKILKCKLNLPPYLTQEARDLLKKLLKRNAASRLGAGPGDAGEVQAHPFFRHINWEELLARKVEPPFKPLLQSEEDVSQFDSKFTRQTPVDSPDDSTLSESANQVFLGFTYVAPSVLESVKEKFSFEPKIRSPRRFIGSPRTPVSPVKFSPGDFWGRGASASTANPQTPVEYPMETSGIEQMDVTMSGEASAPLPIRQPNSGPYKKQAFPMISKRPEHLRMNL
IGF-1R(h), sequence (P08069 31-1367): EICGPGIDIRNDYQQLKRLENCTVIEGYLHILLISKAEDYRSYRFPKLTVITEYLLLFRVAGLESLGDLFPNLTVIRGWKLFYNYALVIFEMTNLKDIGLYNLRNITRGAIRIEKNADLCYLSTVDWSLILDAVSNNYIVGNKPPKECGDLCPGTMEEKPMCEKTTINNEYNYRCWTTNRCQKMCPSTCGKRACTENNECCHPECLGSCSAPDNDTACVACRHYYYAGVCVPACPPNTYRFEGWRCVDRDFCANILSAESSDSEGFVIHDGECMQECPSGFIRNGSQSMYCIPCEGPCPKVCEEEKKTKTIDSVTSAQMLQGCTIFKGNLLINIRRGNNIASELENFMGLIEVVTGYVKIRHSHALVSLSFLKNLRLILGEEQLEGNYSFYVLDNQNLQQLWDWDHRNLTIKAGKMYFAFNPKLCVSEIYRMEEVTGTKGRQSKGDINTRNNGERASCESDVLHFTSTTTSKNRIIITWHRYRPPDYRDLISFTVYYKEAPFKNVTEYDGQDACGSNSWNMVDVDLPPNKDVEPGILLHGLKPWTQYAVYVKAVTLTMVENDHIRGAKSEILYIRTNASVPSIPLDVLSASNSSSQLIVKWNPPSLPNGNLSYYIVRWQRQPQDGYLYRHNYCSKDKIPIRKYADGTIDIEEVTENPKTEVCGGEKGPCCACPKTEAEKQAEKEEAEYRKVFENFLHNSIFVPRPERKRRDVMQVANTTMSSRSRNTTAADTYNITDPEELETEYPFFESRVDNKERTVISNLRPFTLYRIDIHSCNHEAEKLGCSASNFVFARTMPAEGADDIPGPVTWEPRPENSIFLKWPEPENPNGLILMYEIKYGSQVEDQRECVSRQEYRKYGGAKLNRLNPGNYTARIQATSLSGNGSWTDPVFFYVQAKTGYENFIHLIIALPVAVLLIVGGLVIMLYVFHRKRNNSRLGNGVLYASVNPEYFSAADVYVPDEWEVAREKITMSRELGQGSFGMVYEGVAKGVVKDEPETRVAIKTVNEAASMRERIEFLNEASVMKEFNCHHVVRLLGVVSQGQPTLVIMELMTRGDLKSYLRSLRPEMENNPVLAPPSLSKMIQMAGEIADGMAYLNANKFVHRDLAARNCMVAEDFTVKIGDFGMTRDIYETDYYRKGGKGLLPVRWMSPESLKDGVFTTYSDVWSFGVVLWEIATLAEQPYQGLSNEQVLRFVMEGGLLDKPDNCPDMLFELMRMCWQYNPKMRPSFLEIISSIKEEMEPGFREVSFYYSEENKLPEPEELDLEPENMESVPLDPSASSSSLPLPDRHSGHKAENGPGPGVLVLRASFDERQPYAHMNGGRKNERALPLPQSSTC
BRAF (V600E), sequence (P15056 whole entry V600E): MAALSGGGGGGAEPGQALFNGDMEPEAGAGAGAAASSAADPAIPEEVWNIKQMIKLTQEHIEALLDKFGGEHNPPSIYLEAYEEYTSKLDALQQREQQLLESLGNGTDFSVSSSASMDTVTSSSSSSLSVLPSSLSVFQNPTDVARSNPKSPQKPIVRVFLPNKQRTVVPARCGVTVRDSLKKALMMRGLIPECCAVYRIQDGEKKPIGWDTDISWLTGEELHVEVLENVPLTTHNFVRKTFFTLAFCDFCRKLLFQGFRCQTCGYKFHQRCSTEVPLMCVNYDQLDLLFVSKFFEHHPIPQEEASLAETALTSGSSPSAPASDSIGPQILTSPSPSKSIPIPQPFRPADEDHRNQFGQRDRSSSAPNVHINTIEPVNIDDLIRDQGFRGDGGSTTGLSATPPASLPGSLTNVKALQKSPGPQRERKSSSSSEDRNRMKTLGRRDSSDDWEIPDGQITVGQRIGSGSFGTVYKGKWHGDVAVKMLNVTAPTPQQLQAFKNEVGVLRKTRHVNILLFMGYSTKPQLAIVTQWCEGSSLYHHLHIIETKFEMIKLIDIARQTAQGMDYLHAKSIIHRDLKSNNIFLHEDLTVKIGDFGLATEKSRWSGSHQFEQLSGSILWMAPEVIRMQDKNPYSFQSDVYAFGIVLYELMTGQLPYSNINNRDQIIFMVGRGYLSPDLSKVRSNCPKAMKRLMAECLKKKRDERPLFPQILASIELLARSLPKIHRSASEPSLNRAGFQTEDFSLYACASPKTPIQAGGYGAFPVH
wild-type BRaf, sequence (P15056 whole entry): as the sequence (P15056 whole entry V600E) above, with E600V counted along it

`Cc1ccc2c(Nc3cccc(OC(F)(F)F)c3)nccc2c1Nc1ncccc1-c1ncnc2[nH]cnc12` [LUT014]: the IC50 (usually the concentration that inhibits the measured activity by half) was 13.3 nM on BRAF (V600E) and 11.7 nM on wild-type BRaf. For the same compound, the “phototoxicity (3T3 NRU), stated in words” value in [1] is “Lut014 is classified as non-phototoxic”. Besides, in [2], the “increase of phospho-ERK compared to the DMSO treated cells” value was 200-800%. Also, the “phospho-ERK when added to cells treated with Erlotinib” value in data set [2] is “increased”. Moreover, the “phospho-ERK when added to cells treated with cetuximab” value in data set [2] was “increased”. The “maximum accumulated level of LUT014 in the receptor solution” value in data set [3] was “less than 2 ng/mL”. In the data set on minipigs, the tolerability entry is given as “well tolerated in minipigs at”. For the same compound, the “mutagenicity, Escherichia coli reverse mutation assay” value in the data set on Escherichia coli is recorded as “not mutagenic”. Besides, the remaining activity (commonly the signal under treatment as a percentage of the control signal) at 0.01 µM on CDK2/cyclinA(h) (Lut014 @ 0.01 μM) came out at 106%; on CaMKI(h) (Lut014 @ 0.01 μM), 101%; at Fyn(h) (Lut014 @ 0.01 μM), 103%; on IGF-1R(h) (Lut014 @ 0.01 μM) it was 88%; on Rse(h) (Lut014 @ 0.01 μM), 106%; at SAPK2a(h) (Lut014 @ 0.01 μM), 97%. Further, the remaining activity at 0.01 µM on p70S6K(h) (Lut014 @ 0.01 μM) is 108%. For the same compound, the remaining activity at 1 µM on CDK2/cyclinA(h) (Lut014 @ 1 μM) worked out at 95%; at CaMKI(h) (Lut014 @ 1 μM), 97%; at Fyn(h) (Lut014 @ 1 μM), 95%; on IGF-1R(h) (Lut014 @ 1 μM), 86%; at Rse(h) (Lut014 @ 1 μM) it was 113%; at SAPK2a(h) (Lut014 @ 1 μM) it was 54%. The remaining activity at 1 µM on p70S6K(h) (Lut014 @ 1 μM) was determined as 97%. Also, in the data set with GP, the dermal sensitization result was “The test article is not”.
